Numbers after ± are expanded uncertainties.
Assay: xn = mol fraction of the nth substance listed
Details: for surface tension liquid-gas: roughened platinum plate-detachment; for viscosity / mass density: 101 kPa, Liquid; for viscosity: Capillary tube (Ostwald / Ubbelohde) method; for mass density: Vibrating tube method

CN(C)CCCO [3-dimethylamino-1-propanol] + O
Details | mass density [kg/m3] | surface tension liquid-gas [mN/m] | viscosity [mPa·s]
298.15 K, x1 = 0.0979 | – | 36.93 ± 2 | –
298.15 K, x1 = 0.1002 | 978.93 ± 0.11 | – | 6.617 ± 0.14
298.15 K, x1 = 0.1971 | – | 35.21 ± 2 | –
298.15 K, x1 = 0.201 | 960.36 ± 0.12 | – | 14 ± 0.3
298.15 K, x1 = 0.2927 | – | 33.39 ± 2 | –
298.15 K, x1 = 0.297 | 943.21 ± 0.14 | – | 19.6 ± 0.4
298.15 K, x1 = 0.3979 | – | 32.02 ± 2 | –
298.15 K, x1 = 0.4001 | 929.16 ± 0.14 | – | 20.8 ± 0.4
298.15 K, x1 = 0.4996 | – | 31.04 ± 2 | –
298.15 K, x1 = 0.5013 | 917.07 ± 0.16 | – | 19.5 ± 0.4
298.15 K, x1 = 0.5975 | – | 30.56 ± 2 | –
298.15 K, x1 = 0.6019 | 907.19 ± 0.16 | – | 15.1 ± 0.3
298.15 K, x1 = 0.6939 | 899.28 ± 0.18 | – | 12.3 ± 0.3
298.15 K, x1 = 0.6998 | – | 29.87 ± 2 | –
298.15 K, x1 = 0.7946 | – | 29.33 ± 2 | –
298.15 K, x1 = 0.8006 | 891.51 ± 0.19 | – | 9.402 ± 0.2
298.15 K, x1 = 0.8989 | 885.51 ± 0.21 | – | 7.474 ± 0.16
298.15 K, x1 = 0.8997 | – | 28.22 ± 2 | –
298.15 K, x1 = 1 | 880.25 ± 0.24 | 29.01 ± 2 | 5.839 ± 0.12
303.15 K, x1 = 0.0979 | – | 34.56 ± 2 | –
303.15 K, x1 = 0.1002 | 975.53 ± 0.11 | – | 5.319 ± 0.11
303.15 K, x1 = 0.1971 | – | 34.17 ± 2 | –
303.15 K, x1 = 0.201 | 956.53 ± 0.12 | – | 10.8 ± 0.2
303.15 K, x1 = 0.2927 | – | 31.4 ± 2 | –
303.15 K, x1 = 0.297 | 939.37 ± 0.13 | – | 14.4 ± 0.3
303.15 K, x1 = 0.3979 | – | 31.61 ± 2 | –
303.15 K, x1 = 0.4001 | 925.16 ± 0.14 | – | 15.9 ± 0.3
303.15 K, x1 = 0.4996 | – | 30.59 ± 2 | –
303.15 K, x1 = 0.5013 | 913.1 ± 0.16 | – | 15.6 ± 0.3
303.15 K, x1 = 0.5975 | – | 29.91 ± 2 | –
303.15 K, x1 = 0.6019 | 903.25 ± 0.16 | – | 11.9 ± 0.3
303.15 K, x1 = 0.6939 | 895.35 ± 0.18 | – | 9.94 ± 0.21
303.15 K, x1 = 0.6998 | – | 29.34 ± 2 | –
303.15 K, x1 = 0.7946 | – | 28.87 ± 2 | –
303.15 K, x1 = 0.8006 | 887.57 ± 0.19 | – | 7.954 ± 0.17
303.15 K, x1 = 0.8989 | 881.52 ± 0.21 | – | 6.226 ± 0.13
303.15 K, x1 = 0.8997 | – | 27.64 ± 2 | –
303.15 K, x1 = 1 | 876.46 ± 0.24 | 29.28 ± 2 | 4.963 ± 0.11
308.15 K, x1 = 0.0979 | – | 32.51 ± 2 | –
308.15 K, x1 = 0.1971 | – | 32.13 ± 2 | –
308.15 K, x1 = 0.2927 | – | 30.61 ± 2 | –
308.15 K, x1 = 0.3979 | – | 30.51 ± 2 | –
308.15 K, x1 = 0.4996 | – | 30.2 ± 2 | –
308.15 K, x1 = 0.5975 | – | 29.3 ± 2 | –
308.15 K, x1 = 0.6998 | – | 28.72 ± 2 | –
308.15 K, x1 = 0.7946 | – | 28.45 ± 2 | –
308.15 K, x1 = 0.8997 | – | 26.42 ± 2 | –
308.15 K, x1 = 1 | – | 28.88 ± 2 | –
313.15 K, x1 = 0.0979 | – | 32.02 ± 2 | –
313.15 K, x1 = 0.1002 | 968.53 ± 0.12 | – | 3.808 ± 0.079
313.15 K, x1 = 0.1971 | – | 31.26 ± 2 | –
313.15 K, x1 = 0.201 | 948.48 ± 0.13 | – | 7.433 ± 0.15
313.15 K, x1 = 0.2927 | – | 29.79 ± 2 | –
313.15 K, x1 = 0.297 | 931.17 ± 0.14 | – | 10.2 ± 0.2
313.15 K, x1 = 0.3979 | – | 30.12 ± 2 | –
313.15 K, x1 = 0.4001 | 916.99 ± 0.15 | – | 11 ± 0.2
313.15 K, x1 = 0.4996 | – | 29.33 ± 2 | –
313.15 K, x1 = 0.5013 | 905.01 ± 0.16 | – | 10.7 ± 0.2
313.15 K, x1 = 0.5975 | – | 28.76 ± 2 | –
313.15 K, x1 = 0.6019 | 895.21 ± 0.17 | – | 8.899 ± 0.18
313.15 K, x1 = 0.6939 | 887.38 ± 0.18 | – | 7.649 ± 0.16
313.15 K, x1 = 0.6998 | – | 28.23 ± 2 | –
313.15 K, x1 = 0.7946 | – | 27.82 ± 2 | –
313.15 K, x1 = 0.8006 | 879.6 ± 0.2 | – | 6.319 ± 0.13
313.15 K, x1 = 0.8989 | 873.52 ± 0.21 | – | 5.192 ± 0.11
313.15 K, x1 = 0.8997 | – | 26.23 ± 2 | –
313.15 K, x1 = 1 | 868.42 ± 0.24 | 28.47 ± 2 | 4.266 ± 0.091
318.15 K, x1 = 0.0979 | – | 30.72 ± 2 | –
318.15 K, x1 = 0.1971 | – | 29.83 ± 2 | –
318.15 K, x1 = 0.2927 | – | 28.55 ± 2 | –
318.15 K, x1 = 0.3979 | – | 29.78 ± 2 | –
318.15 K, x1 = 0.4996 | – | 28.69 ± 2 | –
318.15 K, x1 = 0.5975 | – | 28.51 ± 2 | –
318.15 K, x1 = 0.6998 | – | 27.87 ± 2 | –
318.15 K, x1 = 0.7946 | – | 27.54 ± 2 | –
318.15 K, x1 = 0.8997 | – | 25.6 ± 2 | –
318.15 K, x1 = 1 | – | 28.13 ± 2 | –
323.15 K, x1 = 0.0979 | – | 28.2 ± 2 | –
323.15 K, x1 = 0.1002 | 961.28 ± 0.12 | – | 2.743 ± 0.057
323.15 K, x1 = 0.1971 | – | 29.54 ± 2 | –
323.15 K, x1 = 0.201 | 940.25 ± 0.13 | – | 4.975 ± 0.1
323.15 K, x1 = 0.2927 | – | 28.28 ± 2 | –
323.15 K, x1 = 0.297 | 922.77 ± 0.14 | – | 6.606 ± 0.14
323.15 K, x1 = 0.3979 | – | 28.91 ± 2 | –
323.15 K, x1 = 0.4001 | 908.62 ± 0.15 | – | 7.162 ± 0.15
323.15 K, x1 = 0.4996 | – | 28.65 ± 2 | –
323.15 K, x1 = 0.5013 | 896.72 ± 0.16 | – | 7.031 ± 0.15
323.15 K, x1 = 0.5975 | – | 27.57 ± 2 | –
323.15 K, x1 = 0.6019 | 887.02 ± 0.17 | – | 6.036 ± 0.13
323.15 K, x1 = 0.6939 | 879.25 ± 0.18 | – | 5.28 ± 0.11
323.15 K, x1 = 0.6998 | – | 27.36 ± 2 | –
323.15 K, x1 = 0.7946 | – | 27.1 ± 2 | –
323.15 K, x1 = 0.8006 | 871.47 ± 0.2 | – | 4.526 ± 0.095
323.15 K, x1 = 0.8989 | 865.41 ± 0.22 | – | 3.848 ± 0.081
323.15 K, x1 = 0.8997 | – | 25.43 ± 2 | –
323.15 K, x1 = 1 | 860.29 ± 0.24 | 27.63 ± 2 | 3.253 ± 0.069
333.15 K, x1 = 0.0979 | – | 26.75 ± 2 | –
333.15 K, x1 = 0.1002 | 953.71 ± 0.12 | – | 2.169 ± 0.045
333.15 K, x1 = 0.1971 | – | 28.32 ± 2 | –
333.15 K, x1 = 0.201 | 931.78 ± 0.13 | – | 3.514 ± 0.073
333.15 K, x1 = 0.2927 | – | 27.56 ± 2 | –
333.15 K, x1 = 0.297 | 914.15 ± 0.14 | – | 4.536 ± 0.094
333.15 K, x1 = 0.3979 | – | 27.91 ± 2 | –
333.15 K, x1 = 0.4001 | 900.04 ± 0.15 | – | 4.707 ± 0.098
333.15 K, x1 = 0.4996 | – | 27.54 ± 2 | –
333.15 K, x1 = 0.5013 | 888.25 ± 0.16 | – | 4.797 ± 0.1
333.15 K, x1 = 0.5975 | – | 26.74 ± 2 | –
333.15 K, x1 = 0.6019 | 878.64 ± 0.17 | – | 4.286 ± 0.089
333.15 K, x1 = 0.6939 | 870.93 ± 0.18 | – | 3.831 ± 0.08
333.15 K, x1 = 0.6998 | – | 26.36 ± 2 | –
333.15 K, x1 = 0.7946 | – | 26.32 ± 2 | –
333.15 K, x1 = 0.8006 | 863.22 ± 0.2 | – | 3.369 ± 0.071
333.15 K, x1 = 0.8989 | 857.19 ± 0.22 | – | 2.94 ± 0.062
333.15 K, x1 = 0.8997 | – | 24.76 ± 2 | –
333.15 K, x1 = 1 | 852.1 ± 0.24 | 26.81 ± 2 | 2.768 ± 0.059
343.15 K, x1 = 0.1002 | 945.85 ± 0.12 | – | 1.686 ± 0.035
343.15 K, x1 = 0.201 | 923.1 ± 0.13 | – | 2.575 ± 0.053
343.15 K, x1 = 0.297 | 905.31 ± 0.14 | – | 3.262 ± 0.068
343.15 K, x1 = 0.4001 | 891.27 ± 0.15 | – | 3.498 ± 0.073
343.15 K, x1 = 0.5013 | 879.56 ± 0.16 | – | 3.428 ± 0.071
343.15 K, x1 = 0.6019 | 870.06 ± 0.17 | – | 3.147 ± 0.066
343.15 K, x1 = 0.6939 | 862.44 ± 0.18 | – | 2.861 ± 0.06
343.15 K, x1 = 0.8006 | 854.81 ± 0.2 | – | 2.579 ± 0.054
343.15 K, x1 = 0.8989 | 848.84 ± 0.22 | – | 2.322 ± 0.049
343.15 K, x1 = 1 | 843.77 ± 0.24 | – | 2.03 ± 0.043
